# Source: publication PMC7179312 (Antimicrobial Agents and Chemotherapy, 2020)
# Experiments:
# [1] = tested on: CC(C)(O/N=C(\C(=O)N[C@@H]1C(=O)N2C(C(=O)[O-])=C(C[n+]3ccccc3)CS[C@H]12)c1csc(N)n1)C(=O)O; assay: purified protein, by the assay type; assay type: biochemical; conditions: other: substrate hydrolysis by purified KPC-2; pH 7.0; 37.0 °C
# [2] = tested on: P. aeruginosa PAM1154 carrying pUCP24 vector (PAM4175); assay: MIC, CLSI broth microdilution; assay type: cell-based; conditions: Pseudomonas aeruginosa, drug alone
# Description: The effects of KPC mutations on resistance to various antibiotics were investigated. For these studies, pUCP24 plasmids carrying wild-type and mutant blaKPC-2 genes as well as the pUCP24 vector were transformed into PAM1154, an efflux-deficient strain of Pseudomonas aeruginosa. In this host, the effect of β-lactamases on β-lactam MIC is amplified due to the slowed uptake of β-lactams across the low-permeability outer membrane without interference by efflux of either β-lactams or BLIs. Consequently, this host allows detection of β-lactamase activity (as an MIC increase) of low-catalytic-efficiency enzymes that rely heavily on the low permeability of the outer membrane. Using the strain that lacks efflux pumps ensures no interference from efflux in interpreting results. We next evaluated the steady-state protein expression levels in bacterial cells. […] The observed discrepancy with our results could be attributed to the difference in either the expression vector or host bacteria.
# (§1) For microbiological studies, wild-type blaKPC-2 and its mutant variants were cloned into the shuttle vector pUCP24. Resulting plasmids were transformed in the efflux-deficient strain of P. aeruginosa PAM1154 using selection on 15 μg/ml of gentamicin. Using a strain of P. aeruginosa as opposed to E. coli as a host for various cloned genes was based on the following consideration. As well documented elsewhere ([41]), P. aeruginosa has a low-permeability outer membrane; consequently, the effect of β-lactamases on MIC is amplified in P. aeruginosa compared to that in E. coli due to the slowed uptake of β-lactams. Thus, this host is appropriate to detect β-lactamase activity (as an MIC increase) of low-catalytic-efficiency enzymes that rely heavily on low permeability of the outer membrane. […] MICs were determined using the Clinical and Laboratory Standards Institute (CLSI) broth microdilution method as described in CLSI document M07-A11 ([42]). Potentiation of antibiotic activity by various BLIs in bacterial strains carrying wild-type (WT) and mutant KPC-2 genes was performed using standard checkerboard methodology ([43]). BLI potency was defined as PV50 (PV, potentiation value). PV50 is the minimal concentration of a BLI that is required to reduce the antibiotic MIC to the middle of the MIC range (E50) where the highest MIC is the MIC for a KPC-producing strain with no inhibitor added and the lowest MIC is the MIC for the vector-only strain, corresponding to the complete inhibition of KPC. E50 is calculated as the square root of the product of the antibiotic MICs for the KPC-producing and the vector-only strains.
# [3] = tested on: P. aeruginosa PAM1154 carrying pUCP24 vector (PAM4175); assay: Checkerboard potentiation of antibiotic activity by BLIs; assay type: cell-based, Pseudomonas aeruginosa
# Description: BLI potency was defined as PV50 (PV, potentiation value) of antibiotic potentiation. PV50 is the concentration of a BLI that is required to reduce the antibiotic MIC to the middle of the MIC range where the highest MIC is the MIC for a KPC-producing strain with no inhibitor added and the lowest MIC is the MIC for the vector-alone strain, which corresponds to complete inhibition of KPC. As a given MIC is directly related to the β-lactamase activity, PV50 might be considered the concentration of a BLI that is required to achieve half-effect of inhibition of β-lactamase activity (in whole cells) to hydrolyze an antibiotic of interest. […] However, the accurate determination of PV50 requires the MIC range to be relatively wide.
# as §1, with “Potentiation of antibiotic activity by various BLIs in bacterial strains carrying wild-type (WT) and mutant KPC-2 genes was performed using standard checkerboard methodology ([43]).” left out
# […]
# […]
# [4] = molecular target: T1, KPC-2 L169P (Klebsiella pneumoniae, UniProt Q9F663, L168P); assay: Kinetics of nitrocefin and ceftazidime hydrolysis by purified enzyme; assay type: biochemical
# T1 construct: 6xHis (C); made in house; host or cells: E. coli (pET28a construct; BL21(DE3) pLys is named only for wild type and D179Y)
# Experimental: (§2) Enzymes were mixed with various concentrations of nitrocefin in 50 mM sodium phosphate (pH 7.0)–0.1 mg/ml of bovine serum albumin (buffer A), and substrate cleavage was monitored at 490 nm every 10 s for 10 min at 37°C on a SpectraMax plate reader (Molecular Devices, San Jose, CA). Initial rates of nitrocefin cleavage were calculated and used to obtain Km and kcat values with Prism software (GraphPad, San Diego, CA).
# (§3) Substrate cleavage was monitored at 260 nm every 30 s at room temperature using a SpectraMax plate reader. The reaction was monitored until OD260 values reached a plateau. Resulting OD260 versus time reaction profiles were fitted to the following equation using Prism software: At = A∞ + (A0 − A∞) × e^−k×t, where At is absorbance at time t, A0 is initial absorbance, and A∞ is final absorbance. In this equation, k = kcat/Km × [E], which allows calculatation of kcat/Km knowing the enzyme concentration ([44]).
# [5] = molecular target: T2, KPC-2 (Klebsiella pneumoniae, UniProt Q9F663); assay: as above; assay type: biochemical; conditions: substrate hydrolysis by purified KPC-2
# T2 construct: 6xHis (C); made in house; host or cells: E. coli BL21(DE3) pLys, pET28a
# Experimental: as §2, §3
# [6] = molecular target: T3, KPC-2 D179Y (Klebsiella pneumoniae, UniProt Q9F663, D178Y); assay: as above; assay type: biochemical
# T3 construct: 6xHis (C); made in house; host or cells: E. coli BL21(DE3) pLys, pET28a
# Experimental: as §2, §3
# [7] = tested on: P. aeruginosa PAM1154 carrying pUCP24-KPC-2::L169P (PAM4751); assay: MIC, CLSI broth microdilution; assay type: cell-based, Pseudomonas aeruginosa; conditions: for MIC: Pseudomonas aeruginosa, PAM4751, pUCP24-KPC-2::L169P, drug alone
# Description: (§4) The effects of KPC mutations on resistance to various antibiotics were investigated. For these studies, pUCP24 plasmids carrying wild-type and mutant blaKPC-2 genes as well as the pUCP24 vector were transformed into PAM1154, an efflux-deficient strain of Pseudomonas aeruginosa. In this host, the effect of β-lactamases on β-lactam MIC is amplified due to the slowed uptake of β-lactams across the low-permeability outer membrane without interference by efflux of either β-lactams or BLIs. Consequently, this host allows detection of β-lactamase activity (as an MIC increase) of low-catalytic-efficiency enzymes that rely heavily on the low permeability of the outer membrane. Using the strain that lacks efflux pumps ensures no interference from efflux in interpreting results. We next evaluated the steady-state protein expression levels in bacterial cells.
# as §1, with “Potentiation of antibiotic activity by various BLIs in bacterial strains carrying wild-type (WT) and mutant KPC-2 genes was performed using standard checkerboard methodology ([43]).” left out
# [8] = tested on: P. aeruginosa PAM1154 carrying pUCP24-KPC-2::D179Y (PAM4639); assay: MIC, CLSI broth microdilution; assay type: cell-based, Pseudomonas aeruginosa; conditions: for MIC: Pseudomonas aeruginosa, PAM4639, pUCP24-KPC-2::D179Y, drug alone
# Description: as §4
# as §1, with “Potentiation of antibiotic activity by various BLIs in bacterial strains carrying wild-type (WT) and mutant KPC-2 genes was performed using standard checkerboard methodology ([43]).” left out
# [9] = tested on: P. aeruginosa PAM1154 carrying pUCP24-KPC-2 (PAM4135); assay: MIC, CLSI broth microdilution; assay type: cell-based; conditions: Pseudomonas aeruginosa; PAM4135, pUCP24-KPC-2; drug alone
# Description: as §4
# as §1, with “Potentiation of antibiotic activity by various BLIs in bacterial strains carrying wild-type (WT) and mutant KPC-2 genes was performed using standard checkerboard methodology ([43]).” left out
# [10] = substrate hydrolysis by purified KPC-2 L169P
# [11] = substrate hydrolysis by purified KPC-2 D179Y
compound,measurement,setting,value
KPC-2 (Klebsiella pneumoniae),kcat,[1],> 2.6 s⁻¹
same,kcat/Km,[1],870 ± 110 M⁻¹ s⁻¹
"CCN1CCN(C(=O)N[C@@H](C(=O)N[C@@H]2C(=O)N3[C@@H]2SC(C)(C)[C@@H]3C(=O)O)c2ccccc2)C(=O)C1=O [Piperacillin, piperacillin]",MIC,[2],0.06 µg/mL
same,Beta-lactam MIC in the presence of BLI,[3]; avibactam 0 µg/ml,0.125 µg/mL
same,Beta-lactam MIC in the presence of BLI,[3]; avibactam 0.008 µg/ml,0.125 µg/mL
same,Beta-lactam MIC in the presence of BLI,[3]; avibactam 0.031 µg/ml,0.125 µg/mL
same,Beta-lactam MIC in the presence of BLI,[3]; avibactam 0.06 µg/ml,0.125 µg/mL
same,Beta-lactam MIC in the presence of BLI,[3]; avibactam 0.5 µg/ml,0.125 µg/mL
same,Beta-lactam MIC in the presence of BLI,[3]; avibactam 64 µg/ml,0.03 µg/mL
same,Beta-lactam MIC in the presence of BLI,[3]; avibactam […],0.125 µg/mL
same,Beta-lactam MIC in the presence of BLI,[3]; vaborbactam 0 µg/ml,0.125 µg/mL
same,Beta-lactam MIC in the presence of BLI,[3]; vaborbactam 0.008 µg/ml,0.125 µg/mL
same,Beta-lactam MIC in the presence of BLI,[3]; vaborbactam 0.031 µg/ml,0.125 µg/mL
same,Beta-lactam MIC in the presence of BLI,[3]; vaborbactam 0.06 µg/ml,0.125 µg/mL
same,Beta-lactam MIC in the presence of BLI,[3]; vaborbactam 0.5 µg/ml,0.125 µg/mL
same,Beta-lactam MIC in the presence of BLI,[3]; vaborbactam 1 µg/ml,0.125 µg/mL
same,Beta-lactam MIC in the presence of BLI,[3]; vaborbactam 2 µg/ml,0.125 µg/mL
same,Beta-lactam MIC in the presence of BLI,[3]; vaborbactam 4 µg/ml,0.125 µg/mL
same,Beta-lactam MIC in the presence of BLI,[3]; vaborbactam 8 μg/ml,0.125 µg/mL
same,Beta-lactam MIC in the presence of BLI,[3]; vaborbactam 16 µg/ml,0.125 µg/mL
same,Beta-lactam MIC in the presence of BLI,[3]; vaborbactam […],0.125 µg/mL
"O=C(Cc1cccs1)N[C@@H]1C(=O)N2C(C(=O)O)=C(/C=C/c3ccc([N+](=O)[O-])cc3[N+](=O)[O-])CS[C@H]12 [Nitrocefin, nitrocefin]",reduction of kcat vs wild-type KPC-2,[4]; KPC-2 L169P,~300 fold
same,Km,[4]; [10],40 ± 10 µM
same,kcat,[4]; [10],0.47 ± 0.04 s⁻¹
same,Km,[5],36 ± 5 µM
same,kcat,[5],132 ± 13 s⁻¹
same,reduction of kcat vs wild-type KPC-2,[6]; KPC-2 D179Y,"approximately 6,000 fold"
same,Km,[6]; [11],26 ± 12 µM
same,kcat,[6]; [11],0.023 ± 0.002 s⁻¹
"C[C@@H](O)[C@H]1C(=O)N2C(C(=O)O)=C(S[C@@H]3CN[C@H](C(=O)N(C)C)C3)[C@H](C)[C@H]12 [Meropenem, meropenem]",MIC,[2],0.125 µg/mL
same,reduction of MIC vs wild-type KPC-2 strain,[7]; L169P strain,64 fold
same,MIC,[7],1 µg/mL
same,increase of MIC vs vector-only strain,[7]; {},8-16 fold
same,reduction of MIC vs wild-type KPC-2 strain,[8]; D179Y strain,64 fold
same,MIC,[8],1 µg/mL
same,increase of MIC vs vector-only strain,[8]; {},8-16 fold
same,MIC,[9],64 µg/mL
"CC(C)(O/N=C(\C(=O)N[C@@H]1C(=O)N2C(C(=O)[O-])=C(C[n+]3ccccc3)CS[C@H]12)c1csc(N)n1)C(=O)O [Ceftazidime, ceftazidime]",MIC,[2],0.25 µg/mL
same,"Antibiotic MIC, No BLI",[3]; no BLI,0.25 µg/mL
same,MIC,[7],256 µg/mL
same,MIC,[8],512 µg/mL
same,MIC,[9],32 µg/mL
"C[C@H]1[C@H](NC(=O)/C(=N\OC(C)(C)C(=O)O)c2csc(N)n2)C(=O)N1S(=O)(=O)O [Aztreonam, aztreonam]",MIC,[2],0.125 µg/mL
